In brackets after ≈: the same amount, converted by molar mass. Like-named read-outs stand apart in the source and are kept apart here.
Experiments:
HepG2 = assay: Cell viability MTT assay, cancer cells; assay type: cell-based; conditions: Homo sapiens, HepG2, 24 h
Method: (§1) For fluorescence imaging of living cells, human embryonic kidney 293 (HEK-293, ATCC) and human hepatoma cancer cell (HepG2, ATCC) were cultured in Dulbecco′s Modified Eagle′s Medium (DMEM, HyClone) supplemented with 10% Fetal Bovine Serum (FBS, Gibco, Carlsbad, CA, USA) and 1% Penicillin/Streptomycin Solution 100X (Corning, Corning, NY, USA). All cells were cultured in a humidified incubator at 37 °C with 5% CO2. HEK-293 and HepG2 cells, approximately 1 × 10^4 cells, were seeded on 8-well chambered cover glasses (LabTek, Nunc, Carlsbad, CA, USA) and incubated in complete medium for 24 h. After that, the cells were treated with 5 μM stock solutions of 3a–f in DMSO/cell culture medium containing 10% FBS (0.25% DMSO), for 0, 1, 3, and 6 h. Then, the cells were washed twice with 0.01 M PBS before being visualized under a Laser-Scanning Confocal Microscope (Nikon A1Rsi) with a 60× oil immersion objective lens and living cell workstation with the excitation channel at 488 nm.
(§2) The cells were seeded on a 96-well plate, approximately 7 × 10^3 cells per well, and incubated in complete medium for 24 h. After that, the cells were treated with 0, 1, 5, 10, 20, and 50 μM of chalcones 3a–f, and culturing continued for 24 h. After incubation, the cells were washed three times with 10 mM PBS and treated with […] of methylthiazolyldiphenyl-tetrazolium bromide (MTT reagent, 0.5 mg mL^−1, Sigma-Aldrich, St. Louis, MO, USA) for 2–3 h. After medium removal, DMSO was added to dissolve the formazan product, and cell viability was determined by UV–Vis absorption of the resulting formazan at a wavelength of 560 nm in a microplate reader (BMG Labtech/SPECTROstar Nano, Ortenberg, Germany).

HEK-293 = assay: Cell viability MTT assay, normal cells; assay type: cell-based; conditions: Homo sapiens
Method: as §1, §2

[1] = pH effect on fluorescence emission; assay type: physicochemical; conditions: 3% Tween 80
Method: Chalcones 3a–f (2 µM) were dissolved in commercial pH 1–12 buffers purchased from Merck (St. Louis, MO, USA) (glycine/NaCl/HCl for pH 1, citric acid/NaOH/HCl for pH 2–6, Na2HPO4/KH2PO4 for pH 7, boric acid/ KCl/NaOH for pH 8–11, Na3PO4/NaOH for pH 12) in the presence of Tween 80 (3% w/w). The actual pH values of the final buffer solutions were measured by a pH meter. The resulting solutions were examined by a Spectrofluorometer (PerkinElmer LS55) at the maximum absorbance wavelength of each compound.

[2] = Photophysical properties (UV–Vis absorption and fluorescence spectra); assay type: physicochemical; conditions: for λabs absorption maximum wavelength / ∆λ stokes shifts (λem − λabs) / λem emission maximum wavelength / Φf fluorescence quantum yields: 2 µM; for λem emission maximum wavelength: excited at the maximum absorption wavelength; for Φf fluorescence quantum yields: n = 3, relative to fluorescein in 0.1 M NaOH
Method: All UV–Vis absorption and fluorescence spectra were recorded on a UV–Vis Spectrophotometer (Agilent Technologies Cary 300, Santa Clara, CA, USA) and a Spectrofluorometer (PerkinElmer LS55, Waltham, MA, USA), respectively. In both experiments, the stock solutions of chalcones 3a–f were prepared as 0.5 mM in DMSO. The appropriate amount of the stock solution was added to DMSO, MeOH, and 0.01 M PBS buffer (pH 7.4) with 3% Tween 80 (3 mL) to obtain the final concentration of 2 µM in the testing solutions. For fluorescence experiments, the emission spectra were recorded at the maximum absorbance wavelength of each compound. The fluorescent quantum yields (Φf) were calculated relative to fluorescein in 0.1 M NaOH as a standard (Φf = 0.95).

[3] = Photo-stability test (photobleaching under 250 W blue light); assay type: physicochemical; conditions: DMSO, 250 W blue light (380–500 nm), after 30 min irradiation
Method: Chalcones 3a–f were dissolved in DMSO at the final concentration of 1 × 10^−6 M for measuring absorption and emission intensity. Then, 3a–f were irradiated at 250 W (blue-lamp) at a distance of 75 cm. The UV–Visible absorption and fluorescence spectra of the solutions were measured at different time points including 0, 1, 5, 10, 15, 20, and 30 min. Photo-stability was reported in terms of photobleaching absorption and emission (%) calculated from the change of absorption and emission intensity at the absorption and emission maxima before and after irradiation.

S. aureus 1466 = assay: Antibacterial activity test (MIC, MBC, growth curve); assay type: cell-based, Staphylococcus aureus; conditions: Staphylococcus aureus
Method: (§3) All bacteria strains were obtained from the Thailand Institute of Scientific and Technological Research (TISTR). The antibacterial activity of chalcones 3a–f was determined by the minimal inhibitory concentration (MIC) and the minimal bactericidal concentration (MBC) against the Gram-positive (S. aureus 1466, TISTR 1466) and Gram-negative (E.coli 780, TISTR 780) bacteria. The stocks of chalcones 3a–f (0.60 mg/mL) were serially diluted in Muller–Hinton (MH) broth to obtain concentrations in the range of 250–1000 µM. The solutions of chalcones 3a–f (100 µL) at different concentrations were added in the culture of the tested bacteria (100 µL) at a concentration of 1 × 10^6 colony-forming units/mL (CFU/mL) in MH broth at 37 °C with shaking at 80 rpm. The bacterial numbers were determined by measuring the optical density at 600 nm by a UV–Vis spectrometer. […] To determine the MBC values, the bacterial cultures (10 µL) containing the solutions of chalcones 3a–f at MIC and three higher concentrations were dropped on MH agar plates.

E. coli 780 = assay: as above; assay type: cell-based, Escherichia coli; conditions: Escherichia coli
Method: as §3

[4] = HEK293, HEK-293, 24 h, MTT, read-out: IC50
[5] = S. aureus 1466, mean ± SD of three independent experiments, read-out: MBC
[6] = S. aureus 1466, mean ± SD of three independent experiments, read-out: MIC
[7] = E. coli 780, mean ± SD of three independent experiments, read-out: MBC
[8] = E. coli 780, mean ± SD of three independent experiments, read-out: MIC

| ε molar absorptivity ([2]; DMSO) [M⁻¹ cm⁻¹] | λabs absorption maximum wavelength ([2]; DMSO) [nm] | ∆λ stokes shifts (λem − λabs) ([2]; DMSO) [nm] | λem emission maximum wavelength ([2]; DMSO) [nm] | Φf fluorescence quantum yields ([2]; DMSO) | ε molar absorptivity ([2]; MeOH) [M⁻¹ cm⁻¹] | λabs absorption maximum wavelength ([2]; MeOH) [nm] | ∆λ stokes shifts (λem − λabs) ([2]; MeOH) [nm] | λem emission maximum wavelength ([2]; MeOH) [nm] | Φf fluorescence quantum yields ([2]; MeOH) | ε molar absorptivity ([2]; PBS (3%w/w tween 80)) [M⁻¹ cm⁻¹] | λabs absorption maximum wavelength ([2]; PBS (3%w/w tween 80)) [nm] | ∆λ stokes shifts (λem − λabs) ([2]; PBS (3%w/w tween 80)) [nm] | λem emission maximum wavelength ([2]; PBS (3%w/w tween 80)) [nm] | Φf fluorescence quantum yields ([2]; PBS (3%w/w tween 80)) | % photobleaching of absorbance [3] [%] | % photobleaching of fluorescence [3] [%] | fluorescence emission ([1]; pH range from 2 to 12, 2 µM) | Compound | IC50 (HEK-293; [4]) [µM] | MBC (S. aureus 1466; [5]) [µM] | also measured |
| --- | --- | --- | --- | --- | --- | --- | --- | --- | --- | --- | --- | --- | --- | --- | --- | --- | --- | --- | --- | --- | --- |
| 32000 | 420 | 119 | 539 | 0.50 ± 0.02 | 32000 | 417 | 130 | 547 | 0.012 ± 0.007 | 28000 | 420 | 101 | 521 | 0.18 ± 0.03 | 46 | 21 | Higher emission peaks | Cc1ccc(C(=O)/C=C/c2ccc(N(C)C)cc2)cc1 [3e] | 96 | 1000 ± 0.02 (≈ 265 µg/mL) | IC50 (HepG2; MTT, read-out: IC50): 54 µM; MIC (S. aureus 1466; [6]): 375 ± 0.03 µM (≈ 99.5 µg/mL); MBC (E. coli 780; [7]): 1000 ± 0.02 µM (≈ 265 µg/mL); MIC (E. coli 780; [8]): 375 ± 0.01 µM (≈ 99.5 µg/mL) |
| 35000 | 412 | 100 | 512 | 0.21 ± 0.03 | 31000 | 414 | 135 | 549 | 0.027 ± 0.011 | 34000 | 412 | 112 | 524 | 0.18 ± 0.02 | 48 | 47 | Higher emission peaks | CN(C)c1ccc(/C=C/C(=O)c2ccc(N)cc2)cc1 [3f] | > 100 | 1000 ± 0.04 (≈ 266 µg/mL) | IC50 (HepG2; MTT, read-out: IC50): 54 µM; MIC (S. aureus 1466; [6]): 375 ± 0.01 µM (≈ 99.9 µg/mL); MBC (E. coli 780; [7]): 750 ± 0.01 µM (≈ 200 µg/mL); MIC (E. coli 780; [8]): 375 ± 0.01 µM (≈ 99.9 µg/mL) |
| 31000 | 431 | 129 | 560 | 0.34 ± 0.04 | 29000 | 428 | 139 | 567 | 0.012 ± 0.007 | 37000 | 427 | 93 | 520 | 0.11 ± 0.02 | 26 | 43 | Higher emission peaks | CN(C)c1ccc(/C=C/C(=O)c2cccs2)cc1 [3b] | > 100 | 1000 ± 0.01 (≈ 257 µg/mL) | IC50 (HepG2; MTT, read-out: IC50): 45 µM; MIC (S. aureus 1466; [6]): 375 ± 0.01 µM (≈ 96.5 µg/mL); MBC (E. coli 780; [7]): 750 ± 0.02 µM (≈ 193 µg/mL); MIC (E. coli 780; [8]): 250 ± 0.02 µM (≈ 64.3 µg/mL) |
| 46000 | 417 | 115 | 532 | 0.69 ± 0.04 | 30000 | 417 | 132 | 549 | 0.013 ± 0.006 | 33000 | 416 | 113 | 529 | 0.15 ± 0.02 | 50 | 25 | Higher emission peaks | COc1ccc(C(=O)/C=C/c2ccc(N(C)C)cc2)cc1 [3a] | > 100 | 1000 ± 0.09 (≈ 281 µg/mL) | MIC (S. aureus 1466; [6]): 375 ± 0.03 µM (≈ 106 µg/mL); MBC (E. coli 780; [7]): 750 ± 0.02 µM (≈ 211 µg/mL); MIC (E. coli 780; [8]): 375 ± 0.01 µM (≈ 106 µg/mL) |

| Compound | ε molar absorptivity ([2]; DMSO) [M⁻¹ cm⁻¹] | λabs absorption maximum wavelength ([2]; DMSO) [nm] | ∆λ stokes shifts (λem − λabs) ([2]; DMSO) [nm] | λem emission maximum wavelength ([2]; DMSO) [nm] | Φf fluorescence quantum yields ([2]; DMSO) | ε molar absorptivity ([2]; MeOH) [M⁻¹ cm⁻¹] | λabs absorption maximum wavelength ([2]; MeOH) [nm] | ∆λ stokes shifts (λem − λabs) ([2]; MeOH) [nm] | λem emission maximum wavelength ([2]; MeOH) [nm] | Φf fluorescence quantum yields ([2]; MeOH) | ε molar absorptivity ([2]; PBS (3%w/w tween 80)) [M⁻¹ cm⁻¹] | λabs absorption maximum wavelength ([2]; PBS (3%w/w tween 80)) [nm] | ∆λ stokes shifts (λem − λabs) ([2]; PBS (3%w/w tween 80)) [nm] | λem emission maximum wavelength ([2]; PBS (3%w/w tween 80)) [nm] | Φf fluorescence quantum yields ([2]; PBS (3%w/w tween 80)) | % photobleaching of absorbance [3] [%] | % photobleaching of fluorescence [3] [%] | fluorescence emission ([1]; pH range from 2 to 12, 2 µM) | IC50 (HEK-293; [4]) [µM] | MBC (S. aureus 1466; [5]) [µM] | also measured |
| --- | --- | --- | --- | --- | --- | --- | --- | --- | --- | --- | --- | --- | --- | --- | --- | --- | --- | --- | --- | --- | --- |
| CN(C)c1ccc(/C=C/C(=O)c2ccc(O)cc2)cc1 [3c] | 10000 | 413 | 107 | 520 | 0.61 ± 0.04 | 10000 | 414 | 132 | 546 | 0.017 ± 0.011 | 13000 | 411 | 115 | 526 | 0.11 ± 0.02 | 37 | 50 |  |  |  | IC50 (HepG2): 100 µM; IC50 (HEK-293; HEK293, 24 h): > 100 µM; fluorescence emission ([1]; basic conditions (pH 9–12), 2 µM): reduced emission signals; MBC (S. aureus 1466; 1466): 1000 ± 0.01 µM (≈ 267 µg/mL); MIC (S. aureus 1466; 1466): 375 ± 0.01 µM (≈ 100 µg/mL); MBC (E. coli 780; 780): 750 ± 0.01 µM (≈ 200 µg/mL); MIC (E. coli 780; 780): 250 ± 0.01 µM (≈ 66.8 µg/mL) |
